Laboratory results taken from patent US12070505B2, “Targeted peptide-drug conjugates” (priority 2021, dated 2024).
≈ marks a conversion by molar mass, not a printed value. Where “and” joins values, the source holds several entries; their conditions need not be identical. Equal values may be shown once.

Assays:
SK-OV-3 cells [1] = assay: MTS cytotoxicity assay of [(WR)8WKβA]-Dox, SK-OV-3; conditions: 5 μM, 72 h
Experimental: (§1) Cytotoxic activity of the synthesized conjugate and noncovalent mixtures of cyclic [WR]9+Dox was determined in SK-OV-3, MDA-MB-231, MCF-7, MES-SA/MX2, and H9C2 cells. […] An appropriate growth medium was used for each cell line (for SK-OV-3: McCoy's […] with L-glutamine containing fetal bovine serum (FBS) (10%) and penicillin or streptomycin (1%); for MDA-MB-231 and MCF-7 cells: DMEM/F12 (1:1) (1×) with L-Glutamine and 15 mM HEPES containing FBS (10%) and penicillin or streptomycin (1%), and for MES-SA/MX2 and H9C2 cells: Minimum Essential Medium Eagle with Earle's salts and sodium bicarbonate, without L-glutamine containing FBS (10%), and penicillin or streptomycin (1%)). The cells were seeded in a complete growth medium 24 h prior to the experiment. […] The incubation was continued for 3 h.

SK-OV-3 cells [2] = assay: Cytotoxicity, MTS cell viability assay, SK-OV-3 (Example 1)
Experimental: (§4) In Vitro Cytotoxicity Assay of Peptide-Drug Conjugates. […] In brief, CCRF-CEM cells were seeded at 50,000 cells in 0.1 mL per well in 98-well plates. In the case of other cell lines, the cells were seeded at 5,000 cells (0.1 mL per well in 96-well plates). […] Dox (5 μM) was used as a positive control, while water and cell culture medium were used as negative controls. The compounds were dissolved in water; water was used as a negative control to normalize the data. After the incubation period, MTS reagent (20 μL) was added to each well. The incubation was continued for 2 h. Cell viability was then determined by determination of the fluorescence intensity at 490 nm using a SpectraMax M2 microplate spectrophotometer. The percentage of cell viability was then calculated using the following equation: [(OD value of cells treated with the compound)−(OD value of culture medium)]/[(OD value of control cells)−(OD value of culture medium)]×100% (FIGS. 6-9).

MDA-MB-231 cells = conditions: naïve MDA231 cells, previous study (Aliabadi et al, 2013); cited from earlier work
MDA-231R cells = assay: LC50 by CCK-8 assay, Dox-resistant MDA-231R; format: cell-based
Experimental: (§2) Dox-resistant Cell Lines. Acquired resistance to Dox was induced in wild-type triple-negative breast cancer cell line MDA-MB-231 (MDA-231WT) as described before (Aliabadi, H. M.; et al. J. Control. Release 172:219-228, 2013, which is incorporated herein by reference). Briefly, MDA-231WT cells were exposed to Dox at an initial concentration of 0.05 μg/mL for one week or three consecutive expansions (whichever came later). […] Resistance induction was confirmed via calculation of LC50 following a sigmoidal effect model explained elsewhere (Bousoik, E.; et al. Front. Oncol. 9:1070, 2019, which is incorporated herein by reference) and determination of P-glycoprotein (P-gp) expression.
(§3) The cytotoxicity of the peptide-Dox conjugate in resistant triple-negative breast cancer and uterine sarcoma cell lines (MDA-231R, MDA-231WT, and MES-SA/MX2) was evaluated by a Cell Counting 8 (CCK8) KIT. The peptide-Dox conjugate was added to the cells in triplicate with different concentrations (0-40 μM). Cells were incubated at 37° C. and 5% CO2 for 24 h. After this incubation period, 10 μL of CCK8 reagent was added to each well, and plates were incubated at the same conditions for 2 h. The absorbance of each well was determined at 450 nm using the SpectraMAX M5 microplate reader. After subtracting the signal from blank wells that contain medium without cells in the plate with CCK-8 solution added, the results were normalized to cells treated with normal saline (considered as 100%)
Efficiency in Dox-Resistant Cells. In order to compare the cytotoxic effect of free and peptide-conjugated Dox in Dox-resistant cells, MDA-231WT (as a Dox-sensitive cell line as control) and MDA-231R and MES-SA/MX2 cells as Dox-resistant cells were exposed to a wide range of Dox (or Dox-equivalent for the peptide-conjugated drug) concentrations (0.05-40 μM). Cells were seeded in 96-well plates with approximately 50% confluency and were incubated for 24 h in 37° C. and 5% CO2. […] The cell viability was determined after this incubation period using the CCK-8 assay, as explained above. […]

MES-SA/MX2 cells [3] = assay: MTS cytotoxicity assay of [(WR)8WKβA]-Dox, MES-SA/MX2; conditions: 5 μM
Experimental: as §1

LLC-PK1 kidney cells = assay: Cytotoxicity, MTS assay, normal kidney cells; conditions: 5 μM
Experimental: In Vitro Cytotoxicity Assay of Peptide-Drug Conjugates. The cytotoxicity of the compounds was determined by using human leukemia cell line (CCRF-CEM), human ovarian adenocarcinoma cells (SKOV-3) cells, kidney cell line (LLC-PK1), gastric adenocarcinoma cells (AGS), and heart/myocardium cells (H9C2) to evaluate the toxicity of the generated peptides according to a previously reported procedure (Rahman, A.; et al. Proc. Am. Assoc. Cancer Res. 26:2295-2299, 1985, which is incorporated herein by reference). In brief, CCRF-CEM cells were seeded at 50,000 cells in 0.1 mL per well in 98-well plates. In the case of other cell lines, the cells were seeded at 5,000 cells (0.1 mL per well in 96-well plates). The cells were seeded in medium (RPMI-1640 containing FBS (10%)), 24 h prior to the experiment. The compounds at different concentrations (10-50 μM) were added to each well in triplicate and incubated for 24 and 72 h at 37° C. in a humidified atmosphere of 5% CO2. Dox (5 μM) was used as a positive control, while water and cell culture medium were used as negative controls. The compounds were dissolved in water; water was used as a negative control to normalize the data. After the incubation period, MTS reagent (20 μL) was added to each well. The incubation was continued for 2 h. Cell viability was then determined by determination of the fluorescence intensity at 490 nm using a SpectraMax M2 microplate spectrophotometer.

CCRF-CEM cells = assay: Cytotoxicity, MTS cell viability assay, CCRF-CEM; conditions: 5 μM
Experimental: as §4

MES-SA/MX2 cells [4] = assay: LC50 by CCK-8 assay, Dox-resistant MES-SA/MX2; format: cell-based; conditions: FIG. 10: after 72 h
Experimental: as §2
as §3, with “Cells were incubated at 37° C. and 5% CO2 for 24 h.” left out, “After subtracting the signal from blank wells that contain medium without cells in the plate with CCK-8 solution added, the results were normalized to cells treated with normal saline (considered as 100%)” left out
Efficiency in Dox-Resistant Cells. […] The cell viability was determined after this incubation period using the CCK-8 assay, as explained above. […]

COc1cccc2c1C(=O)c1c(O)c3c(c(O)c1C2=O)C[C@@](O)(C(=O)CO)C[C@@H]3O[C@H]1C[C@H](N)[C@H](O)[C@H](C)O1 [Dox, doxorubicin, reference compound]
reduction of cell viability / inhibition of proliferation (SK-OV-3 cells [1]): 35%
Cell Viability (%) after 24 h (SK-OV-3 cells [2]; 5 μM): 73 ± 2%
Cell Viability (%) after 72 h (SK-OV-3 cells [2]; 5 μM): 67 ± 3%
reduction of cell survival/viability (SK-OV-3 cells [2]; 5 μM, 24 h): 27% and 30%
reduction of cell survival/viability (SK-OV-3 cells [2]; 5 μM, 72 h): 33%
Cell Viability (%) after 24 h (SK-OV-3 cells [2]; 10 μM): 71 ± 3%
Cell Viability (%) after 72 h (SK-OV-3 cells [2]; 10 μM): 64 ± 1%
cytotoxicity (SK-OV-3 cells [2]; Dox alone 5 and 10 μM): 27-36%
LC50 (MDA-MB-231 cells): 0.3 µg/mL (≈ 0.552 µM)
CC50 (MDA-231R cells; MDA-231R (Dox-resistant), FIG. 10: after 72 h): 36 µM
LC50 in MDA-MB-231R cells, times higher than the naïve cells (MDA-231R cells; resistance induction): more than 50 times
efficiency against MES-SA/MX2 (MES-SA/MX2 cells [3]; 1 μM, 10 μM, or 20 μM): did not show significant efficiency
inhibition of cell viability/proliferation (MES-SA/MX2 cells [3]; MES-SA/MX2): 15%
reduction of cell survival (LLC-PK1 kidney cells; LLC-PK1, 24 h): 64%
reduction of cell survival (LLC-PK1 kidney cells; LLC-PK1, 72 h): 77%
reduction of viability of kidney cells (LLC-PK1 kidney cells; LLC-PK1, time not stated): 85%
Cell Viability (%) after 24 h (LLC-PK1 kidney cells; normal kidney LLC-PK1): 44 ± 0% and 48 ± 2%
Cell Viability (%) after 24 h (CCRF-CEM cells): 48 ± 2%
Cell Viability (%) after 72 h (CCRF-CEM cells): 15 ± 3%
reduction of cell survival/viability (CCRF-CEM cells; 24 h): 52%
reduction of cell survival/viability (CCRF-CEM cells; 72 h): 85%
CC50 (MES-SA/MX2 cells [4]): 41 µM
